Where two headings read alike, the source gives them in different places.
Key:
[1] = In vitro microsomal stability; assay type: in vitro ADME; conditions: Human microsomes, data from Apredica
[2] = In vitro microsomal stability; assay type: in vitro ADME; conditions: Mouse microsomes, data from Apredica
[3] = In vitro Caco-2 permeability; assay type: in vitro ADME; conditions: human
[4] = cited from earlier work
cortical neurons = assay: Primary cortical neuron protection assay; assay type: cell-based
[5] = system: PC12 cells expressing G93A SOD1; assay: Mutant SOD1-induced cytotoxicity protection assay; assay type: cell-based

Row | Compound | NADPH-absent CLint (microsomal intrinsic clearance) [1] [mL/min/kg] | NADPH-dependent CLint (microsomal intrinsic clearance) [1] [mL/min/kg] | NADPH-absent CLint (microsomal intrinsic clearance) [2] [mL/min/kg] | NADPH-dependent CLint (microsomal intrinsic clearance) [2] [mL/min/kg] | also measured
1 | O=c1cc(COc2cc(Cl)cc(Cl)c2)[nH][nH]1 [Compound 1] | 13 | 25 | 21 | 64 | efflux ratio [3]: 0.4; AUC/dose ([4]; i.v. administration): 184 ng*h/mL/dose; PK half-life ([4]; in vivo PK): 3.6 h; AUC/dose ([4]; p.o. administration): 50 ng*h/mL/dose; Oral bioavailability ([4]; p.o. vs i.v.): 27%
2 | O=c1cc(CNc2cc(Cl)cc(Cl)c2)[nH][nH]1 [Compound 2, 5-((3,5-Dichlorophenylamino)methyl)-1H-pyrazol-3(2H)-one] | 0 | 24 | 23 | 78 | 
3 | CN(Cc1cc(=O)[nH][nH]1)c1cc(Cl)cc(Cl)c1 [Compound 3, 5-(((3,5-Dichlorophenyl)(methyl)amino)methyl)-1H-pyrazol-3(2H)-one] | 0 | 0 | 0 | 93 | Neuronal activity recovered (cortical neurons; 10 μM concentration): 100%
4 | CN(CCCc1cc(=O)[nH][nH]1)c1cc(Cl)cc(Cl)c1 [Compound 24, 5-(3-((3,5-Dichlorophenyl)(methyl)amino)propyl)-1H-pyrazol-3(2H)-one] |  |  |  |  | Activity with cortical neurons (cortical neurons): not active
5 | O=c1[nH][nH]c2c1CN(c1cc(Cl)cc(Cl)c1)CC2 [Compound 27, 5-(3,5-Dichlorophenyl)-4,5,6,7-tetrahydro-1H-pyrazolo[4,3-c]pyridin-3(2H)-one] |  |  |  |  | Activity with cortical neurons (cortical neurons): not active
6 | CN(Cc1cc(=O)n(Cc2ccccc2)[nH]1)c1cc(Cl)cc(Cl)c1 [Compound 29, 2-Benzyl-5-(((3,5-dichlorophenyl)(methyl)amino)methyl)-1H-pyrazol-3(2H)-one] |  |  |  |  | Activity in the PC12 assay [5]: comparable in activity to parent compound 3
7 | CN(Cc1cc(=O)n(C)[nH]1)c1cc(Cl)cc(Cl)c1 [Compound 30, 5-(((3,5-Dichlorophenyl)(methyl)amino)methyl)-2-methyl-1H-pyrazol-3(2H)-one] |  |  |  |  | Activity in the PC12 assay [5]: comparable in activity to parent compound 3

From PMC3627359 (Journal of medicinal chemistry, 2013)
